Measurements reported in PubChem BioAssay (NCI).
Values joined by “and” are separate entries in the source; they are usually repeats but may differ in a detail not shown here. Identical values can stand only once.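 In this assay, cells in 96-well plates receive the compound at five concentrations for 48 hours. Endpoints are linearly interpolated between the surrounding concentrations. GI50: concentration for 50% inhibition of growth. TGI: total growth inhibition.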

Assays:
Experiment in all cases: inhibition of tumour cell growth, NCI panel, 48 h
786-0 renal = system: 786-0 renal
A498 renal = system: A498 renal
CAKI-1 renal = system: CAKI-1 renal
DMS 114 small cell lung = system: DMS 114 small cell lung
HT29 colon = system: HT29 colon
MDA-MB-435 = system: MDA-MB-435
MDA-N = system: MDA-N
OVCAR-4 ovarian = system: OVCAR-4 ovarian
SF-268 CNS = system: SF-268 CNS
U251 CNS = system: U251 CNS

SMILES	GI50 (786-0 renal)	TGI (786-0 renal)	GI50 (A498 renal)	GI50 (CAKI-1 renal)	TGI (CAKI-1 renal)	TGI (DMS 114 small cell lung)	GI50 (HT29 colon)	TGI (HT29 colon)	GI50 (MDA-MB-435)	TGI (MDA-N)	GI50 (OVCAR-4 ovarian)	TGI (OVCAR-4 ovarian)	GI50 (SF-268 CNS)	TGI (SF-268 CNS)	GI50 (U251 CNS)	TGI (U251 CNS)	TGI (A498 renal)	TGI (MDA-MB-435)
CN(C)CCCN1c2ccccc2Sc2ccc(C(F)(F)F)cc21	1.63 µM	3.09 µM and 27.1 µM and 27.9 µM	1.05 µM	1.54 µM	3.15 µM and 24 µM	34 µM	1.35 µM	2.82 µM and 25.3 µM	1.6 µM	26.3 µM	1.97 µM	5.53 µM and 28 µM	1.75 µM	3.94 µM and 31.8 µM and 29.2 µM	1.69 µM	3.14 µM and 29.6 µM and 29.4 µM	–	–
O=C1CCC(c2ccccc2)=NN1c1nc2ccccc2s1	–	> 100 µM	–	–	> 100 µM	> 100 µM	–	> 100 µM	–	> 100 µM	–	> 100 µM	–	> 83 µM	–	> 100 µM	> 100 µM	69.7 µM
O=c1cc(-c2ccccc2)oc2ccc(Cl)cc12	–	> 87.8 µM	–	–	> 90.4 µM	> 100 µM	–	> 100 µM	–	> 61.1 µM	–	> 96.3 µM	–	> 85.3 µM	–	> 91.7 µM	98 µM	> 60.1 µM
O=C1/C(=C/c2ccc(Cl)cc2)CCC1CNc1ccc(Cl)cc1 (stereo unspecified)	–	6.73 µM	–	–	28.9 µM	> 48.3 µM	–	41.1 µM	–	40.4 µM	–	54.5 µM	–	40.6 µM	–	29.6 µM	54.8 µM	37.6 µM
